One assay has as its system A549. Kind of assay: Caspase-3/7 apoptosis assay (Apo-ONE) in A549. Particulars: Compound I 300 nM, 48 hrs. Type of assay: cell-based. From the text:
(§1) Apoptosis or programmed cell death is characterized by a set of biochemical reactions, one of which is the induction of caspases. Activated caspases are proteases that participate in a cascade of cleavage events that disable key enzymes responsible for cell homeostasis and repair. Caspases 3 and 7 play key effector roles in apoptosis and can be detected and measured by a fluorescent biochemical assay. The increase of Caspase-3/7 activity in cells is directly correlated to apoptotic activity. (D. W. Nicholson, et al., Nature, 376, 37-43 (1995)) The Promega Apo-ONE Homogeneous Caspase-3/7 Assay Kit was used (Catalog #G7791). The assay buffer consists of 30 mM HEPES (N-(2-hydroxyethyl)piperazine-M-(2-ethanesulfonic acid) pH 7.4, 150 mM NaCl, 50 mM KCl, 10 mM MgCl2, 0.4 mM EGTA (ethylene glycol tetraacetic acid), 0.5% Nonidet P40 (octylphenolpoly(ethyleneglycol ether)), 0.1% CHAPS (3-[(3-Cholamidopropyl)dimeth-ylammonio]-1-propanesulfonate hydrate and 10% sucrose, which lyses/permeabilizes cultured cells and a caspase 3/7 substrate, Z-DEVD (Z-Asp(OMe)-Glu(OMe)-Val-Asp(OMe)), coupled to a profluorescent rhodamine 110. When the buffer-substrate mixture is added to a test sample, the cleavage and subsequent removal of the DEVD peptides by caspase 3/7 activity results in intense fluorescence of the rhodamine 110 leaving group, which is detected by excitation at 499 nm. The amount of fluorescent product is proportional to the amount of caspase 3/7 cleavage activity in the sample.
(§2) To measure the apoptotic effect of test compounds, tumor cells are plated at 1×10^4 cells per well in 96 well plates and incubated overnight at 37° C., with 5% CO2. Tumor cells are treated with test compound at desired concentrations in triplicate, including untreated/negative control wells. The assay plates are re-incubated for 48 hrs. At the end of the incubation period, a mixture of the assay buffer and substrate is added to each sample well. The fluorescence in each well is measured at an excitation wavelength of 485+/−20 nm and an emission wavelength of 530+/−25 nm. The % increase of caspase activity in treated cells is calculated relative to untreated controls.
(§3) The data in Tables 1-12 are expressed as % increase of caspase activity relative to untreated controls unless otherwise noted.

In a further assay the test system is HCT-116. Briefly: Caspase-3/7 apoptosis assay (Apo-ONE) in HCT-116. The format is cell-based, human. Particulars: 48 hrs.
From the text: as §1, §2, §3

Assay [1] relates to Colo-205 human colorectal carcinoma xenografts. Briefly: Tumor growth delay, Colo-205 xenografts. Type of assay: in vivo, CD-1 nu/nu mice. Particulars: cisplatin 5 mg/kg IP, Compound I 5 mg/kg IV, alone or combined, 3 cycles separated by 7 days, time to 1000 mm^3 vs control. The method, then: (§4) Cultured cells are implanted subcutaneously in the rear flank of female CD-1 nu/nu strain mice which have been acclimated for one week in the animal facility after receipt from the vendor. Mice are randomized into groups of 7 or 8 mice per group and treatment begun when the mean tumor volume reaches ˜100 mm^3 Compound I is dosed IV and the chemotherapeutic agent is given IP. When the agents are given in combination, the chemotherapeutic agent is dosed 60 minutes prior to Compound I. The tumors are measured 2 times per week by electronic calipers to plot growth curves. Tumor growth delay is the increase in median time it takes for a tumor to reach 1000 mm^3 in volume when compared to a control group. Animals are also monitored for fluctuations in body weight and survival.

A further assay has as its system Colo-205. Briefly: Caspase-3/7 apoptosis assay (Apo-ONE) in Colo-205. Type of assay: cell-based, human. Particulars: 48 hrs.
From the text: as §1, §2, §3

In assay [2] the test system is HCT-116 human colorectal carcinoma xenografts. Kind of assay: Tumor growth delay, HCT-116 xenografts. The format is in vivo, CD-1 nu/nu mice. The settings on record: cisplatin 10 mg/kg IP, Compound I 5 mg/kg IV, alone or combined, 3 cycles separated by 7 days, time to 1000 mm^3 vs control. The protocol:
as §4

The subject of the next assay is NCI-H460. Briefly: Caspase-3/7 apoptosis assay (Apo-ONE) in NCI-H460. The format is cell-based, human. Particulars: 48 hrs.
From the text: as §1, §2, §3

The next assay has as its system KATO III. Kind of assay: Caspase-3/7 apoptosis assay (Apo-ONE) in KATO III. The format is cell-based. The settings on record: Cmpd I 600 nM, Cisplatin 10 μM, 48 hrs.
From the text: as §1, with “The amount of fluorescent product is proportional to the amount of caspase 3/7 cleavage activity in the sample.” left out

A further assay concerns AGS. Kind of assay: Caspase-3/7 apoptosis assay (Apo-ONE) in AGS. The settings on record: Cmpd I 900 nM. The format is cell-based.
From the text: as §1
as §2, with “The assay plates are re-incubated for 48 hrs.” left out
as §3

A further assay relates to Calu-6. Briefly: Caspase-3/7 apoptosis assay (Apo-ONE) in Calu-6. Type of assay: cell-based. Particulars: 48 hrs.
From the text: as §1, §2, §3

Assay [3] concerns A2780 human ovarian carcinoma xenografts. Briefly: Tumor growth delay, A2780 xenografts. Particulars: cisplatin 5 mg/kg IP, Compound I 5 mg/kg IV, alone or combined, 3 cycles separated by 7 days, time to 1000 mm^3 vs control. Type of assay: in vivo, CD-1 nu/nu mice. The protocol: as §4
For the next assay, the system named is MKN 45. Kind of assay: Caspase-3/7 apoptosis assay (Apo-ONE) in MKN 45. The format is cell-based.
From the text: as §1
as §2, with “The assay plates are re-incubated for 48 hrs.” left out
as §3

Another assay relates to A2780. Briefly: Caspase-3/7 apoptosis assay (Apo-ONE) in A2780. Type of assay: cell-based, human.
From the text: as §1
as §2, with “The assay plates are re-incubated for 48 hrs.” left out
as §3

Assay [4] deals with NCI-H460 human non-small cell lung cancer xenografts. Kind of assay: Tumor growth delay, NCI-H460 xenografts. Type of assay: in vivo, CD-1 nu/nu mice. The settings on record: Compound I 5 mg/kg IV, time to 1000 mm^3 vs control. The protocol:
as §4

A further assay concerns SKOV3. Briefly: Caspase-3/7 apoptosis assay (Apo-ONE) in SKOV3. Type of assay: cell-based. Particulars: Cmpd I 300 nM, Doxorubicin 1 μM, 48 hrs.
From the text: as §1, with “The amount of fluorescent product is proportional to the amount of caspase 3/7 cleavage activity in the sample.” left out

The mark [5] stands for this setting: Cmpd I 60 nM, Gemcitabine 30 nM.
The mark [6] stands for this setting: Compound I 30 nM, pemetrexed 60 nM.
Where [7] appears, read: Compound I 300 nM, cisplatin 5 μM.
Setting [8] is: Compound I 330 nM, CPT-11 20 nM.
Setting [9] is: Compound I 110 nM, cisplatin 5 μM.
Setting [10] is: NCI H-460, Cmpd I 300 nM, Etoposide 1 μM.
The mark [11] stands for this setting: NCI H-460, Cmpd I 300 nM, Gemcitabine 50 nM.
Setting [12] is: NCI H-460, Cmpd I 300 nM, Pemetrexed 500 nM.
The mark [13] stands for this setting: NCI-H460, Compound I 100 nM, carboplatin 10 μM.
Setting [14] is: NCI-H460, Compound I 300 nM, cisplatin 1 μM.
Where [15] appears, read: Cisplatin 5 μM, plates incubated for 72 hours.
The mark [16] stands for this setting: Calu 6, Cmpd I 33 nM, Cisplatin 2 μM.
Setting [17] is: Calu-6, Compound I 30 nM, pemetrexed 60 nM.
Setting [18] is: Cmpd I 300 nM, 5-FU 5 μM, plates incubated for 72 hours.
Setting [19] is: Cmpd I 600 nM, Cisplatin 10 μM, 48 hrs.
Setting [20] is: Cmpd I 300 nM, Carboplatin 5 μM, plates incubated for 72 hours.
Where [21] appears, read: Compound I 30 nM, pemetrexed 60 nM, 48 hrs.
The mark [22] stands for this setting: Compound I 60 nM, cisplatin 5 μM, 48 hrs.
[23] abbreviates: Compound I 330 nM, CPT-11 20 nM, 48 hrs.
The mark [24] stands for this setting: Carboplatin 50 mg/kg IP, alone or combined, every 14 days × 3 cycles.

`O=C1NC(=O)C(c2cnc3ccccn23)=C1c1cn2c3c(cc(F)cc13)CN(C(=O)N1CCCCC1)CC2` [Compound I, 7-(2,5-dihydro-4-imidazo[1,2-a]pyridine-3-yl-2,5-dioxo-1H-pyrrol-3-yl)-9-fluoro-1,2,3,4-tetrahydro-2-(1-piperidinyl-carbonyl)-pyrrolo[3,2,1-jk][1,4]benzodiazepine]: the “% increase of caspase activity relative to untreated controls” value in the assay on A549 (carboplatin 10 μM) came to 52%; in the assay with A549 (cisplatin 1 μM), 80%; in the assay on HCT-116 (Cmpd I 12 nM, 5-FU 5 μM) it was 47%; with HCT-116 (setting [5]) it was 0%; in the assay with HCT-116 (setting [6]), 0%; in the assay with HCT-116 (setting [7]), 16%. Moreover, the “% increase of caspase activity relative to untreated controls” value is 53% in the assay on HCT-116 (setting [8]); 45% in the assay with Colo-205 (Compound I 33 nM, CPT-11 20 nM); 12% in the assay with Colo-205 (setting [9]); 222% in the assay with NCI-H460 (setting [10]); 186% in the assay on NCI-H460 (setting [11]); 38% in the assay on NCI-H460 (setting [12]). The “% increase of caspase activity relative to untreated controls” value in the assay on NCI-H460 (setting [13]) is reported as 122%; in the assay with NCI-H460 (setting [14]) it was 99%; with KATO III, 48%; in the assay with AGS (5-FU 3 μM, 48 hrs), 0%; in the assay with AGS (setting [15]) it was 0%; with Calu-6 (setting [16]), 154%. Also, the “% increase of caspase activity relative to untreated controls” value in the assay on Calu-6 (setting [17]) came to 139%; in the assay on MKN 45 (setting [18]), 105%; with MKN 45 (setting [19]) it was 162%; in the assay with A2780 (setting [20]), 55%; in the assay with A2780 (setting [21]), 10%; in the assay on A2780 (setting [22]), 0%. Also, the “% increase of caspase activity relative to untreated controls” value is reported as 1% with A2780 (setting [23]) and 0% in the assay on SKOV3. The “Tumor Growth Delay Mean ± Standard Error” value in [1] was 10.9 ± 2.2 days; in [2] it was 2 ± 2.2 days; in [3] it was -0.3 ± 1.4 days; in [4] (setting [24]), 3 ± 1.4 days; in assay [4] (carboplatin 10 mg/kg IP, pemetrexed 300 mg/kg IP, every 14 days for 3 cycles), 1.4 ± 3.8 days.
For the molecule `COc1cc([C@@H]2c3cc4c(cc3[C@@H](O[C@@H]3O[C@@H]5CO[C@@H](C)O[C@H]5[C@H](O)[C@H]3O)[C@H]3COC(=O)[C@H]23)OCO4)cc(OC)c1O` [Etoposide, etoposide, reference compound], the “% increase of caspase activity relative to untreated controls” value in the assay with NCI-H460 (setting [10]) was 251%.
Turning to `Nc1nc2[nH]cc(CCc3ccc(C(=O)N[C@@H](CCC(=O)O)C(=O)O)cc3)c2c(=O)[nH]1` [Pemetrexed, pemetrexed, reference compound], the “% increase of caspase activity relative to untreated controls” value with HCT-116 (setting [6]) is 23%; with NCI-H460 (setting [12]), 185%; with Calu-6 (setting [17]) it was 24%; with A2780 (setting [21]) it was 0%.
Regarding `N.N.[Cl][Pt][Cl]` [cisplatin, reference compound], the “% increase of caspase activity relative to untreated controls” value in the assay with A549 (cisplatin 1 μM) came to 4%; with HCT-116 (setting [7]), 36%; with Colo-205 (setting [9]), 8%; with NCI-H460 (setting [14]), 47%; with KATO III, 389%; in the assay on AGS (setting [15]), 147%. The “% increase of caspase activity relative to untreated controls” value in the assay with Calu-6 (setting [16]) amounted to 97%; with MKN 45 (setting [19]), 359%; with A2780 (setting [22]), 1.5%. Also, the “Tumor Growth Delay Mean ± Standard Error” value in assay [1] came to 18 ± 3.5 days; in [2] it was 23 ± 10.3 days; in [3], 5 ± 1.6 days.
On to `COc1cccc2c1C(=O)c1c(O)c3c(c(O)c1C2=O)C[C@@](O)(C(=O)CO)C[C@@H]3O[C@H]1C[C@H](N)[C@H](O)[C@H](C)O1` [Doxorubicin, doxorubicin, reference compound], for which the “% increase of caspase activity relative to untreated controls” value with SKOV3 is 184%.
On to `CCc1c2c(nc3ccc(OC(=O)N4CCC(N5CCCCC5)CC4)cc13)-c1cc3c(c(=O)n1C2)COC(=O)[C@]3(O)CC` [CPT-11, irinotecan, reference compound], for which the “% increase of caspase activity relative to untreated controls” value with HCT-116 (setting [8]) was found to be 50%; in the assay with Colo-205 (Compound I 33 nM, CPT-11 20 nM), 38%; in the assay with A2780 (setting [23]) it was 153%.
As for `O=c1[nH]cc(F)c(=O)[nH]1` [Compound 5-FU, 5-fluorouracil, reference compound], the “% increase of caspase activity relative to untreated controls” value in the assay on HCT-116 (Cmpd I 12 nM, 5-FU 5 μM) was found to be 55%; with AGS (5-FU 3 μM, 48 hrs), 133%; in the assay on MKN 45 (setting [18]) it was 415%.
On to `N.N.O=C([O-])C1(C(=O)[O-])CCC1.[Pt+2]` [carboplatin, reference compound], for which the figures for the “% increase of caspase activity relative to untreated controls” value in the assay with A549 (carboplatin 10 μM), in the assay on NCI-H460 (setting [13]) and with A2780 (setting [20]) were 14%, 16% and 78%, respectively. The “Tumor Growth Delay Mean ± Standard Error” value in [4] (setting [24]) is 2 ± 2.9 days.
With `Nc1ccn([C@@H]2O[C@H](CO)[C@@H](O)C2(F)F)c(=O)n1` [Gemcitabine, reference compound], the results for the “% increase of caspase activity relative to untreated controls” value in the assay on HCT-116 (setting [5]) and in the assay on NCI-H460 (setting [11]) were 324% and 1187%, respectively.

The values are drawn from US8648063B2, “Potentiation of cancer chemotherapy by 7-(2, 5-dihydro-4-imidazo [1, 2-a] pyridine-3-yl-2,5-dioxo-1H-pyrrol-3-yl)-9-fluoro-1,2,3,4 tetrahydro -2-(1-piperidinyl-carbonyl)-pyrrolo [3,2,1-jk] [1,4] benzodiazepine” (Eli Lilly and Company, priority 2007, dated 2014).
